Data published in publication PMC9380671, “Development of spiro-3-indolin-2-one containing compounds of antiproliferative and anti-SARS-CoV-2 properties” (Scientific Reports, 2022).

Legend:
[1] = system: PaCa2 (pancreatic) cancer cell line; assay: MTT antiproliferation, PaCa-2; format: cell-based, human; conditions: for IC50: Homo sapiens, PaCa-2, 72 h, read-out: IC50 (µM) ± SEM PaCa-2; for SI (selectivity index) PaCa-2: IC50 of RPE1/IC50 of cancer cell line
[2] = MTT cytotoxicity assay (CC50); format: cell-based; conditions: African green monkey, VERO-E6 cells
Outline: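 VERO-E6 cells seeded at 3 x 10^5 cell/ml, grown 24 h at 37 °C, then exposed to compounds in triplicate for 24 h. Viability by MTT (4 h, 37 °C), formazan in acidified isopropanol read at 570 nm; CC50 by nonlinear regression versus untreated cells.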

BChE = BChE (Homo sapiens, UniProt P06276); assay: BChE inhibition (DTNB, butyrylthiocholine iodide)
Sequence of BChE (P06276 29-602, species assumed): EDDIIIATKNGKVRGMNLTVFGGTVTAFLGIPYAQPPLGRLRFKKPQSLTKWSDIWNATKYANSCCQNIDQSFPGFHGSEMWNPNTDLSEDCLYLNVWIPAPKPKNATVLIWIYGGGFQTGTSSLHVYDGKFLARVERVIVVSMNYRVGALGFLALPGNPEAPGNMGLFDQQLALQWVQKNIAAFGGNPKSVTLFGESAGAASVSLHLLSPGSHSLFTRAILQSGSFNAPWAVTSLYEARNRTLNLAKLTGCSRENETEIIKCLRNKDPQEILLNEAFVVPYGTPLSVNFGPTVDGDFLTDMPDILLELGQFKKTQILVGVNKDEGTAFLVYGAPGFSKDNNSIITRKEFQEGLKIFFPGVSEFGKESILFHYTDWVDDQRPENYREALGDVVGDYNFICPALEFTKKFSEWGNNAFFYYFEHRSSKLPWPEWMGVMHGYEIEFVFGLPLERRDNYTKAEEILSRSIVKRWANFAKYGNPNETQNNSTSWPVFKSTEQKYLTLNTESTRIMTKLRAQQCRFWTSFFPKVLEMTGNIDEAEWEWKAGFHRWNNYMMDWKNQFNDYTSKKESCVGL
Procedure: Butyrylthiocholine iodide and acetylthiocholine were utilized as substrates in BChE and AChE assays, respectively, where DTNB was served as indicator. All compounds were dissolved in MeOH. […] Blank assays were performed by replacing the enzyme (20 μL) with buffer and their absorbances were recorded for correction of the spontaneous lysis of the indicator or inherent color of the inhibitor.
% Inhibition = [1−(corrected A/corrected B)] * 100

SMILES	IC50 [1]	SI (selectivity index) PaCa-2 [1]	CC50 at 24 h [2]	IC50 (BChE)
CN1CC(c2ccc(Br)cc2)C2(CN(S(C)(=O)=O)C/C(=C\c3ccc(Br)cc3)C2=O)C12C(=O)Nc1ccccc12 (centres unmarked) [Compound 6m, (E)-5″-(4-Bromobenzylidene)-4′-(4-bromophenyl)-1′-methyl-1″-(methylsulfonyl)dispiro[indoline-3,2′-pyrrolidine-3′,3″-piperidine]-2,4″-dione]	12.5 ± 0.67 µM	1.2	160 µM	27.9 ± 2.96 µM
CCS(=O)(=O)N1C/C(=C\c2ccc(Cl)cc2)C(=O)C2(C1)C(c1ccc(Cl)cc1)CN(C)C21C(=O)Nc2ccc(Cl)cc21 (centres unmarked) [Compound 6l, (E)-5-Chloro-5″-(4-chlorobenzylidene)-4′-(4-chlorophenyl)-1″-(ethylsulfonyl)-1′-methyldispiro[indoline-3,2′-pyrrolidine-3′,3″-piperidine]-2,4″-dione]	11.9 ± 0.83 µM	> 4.2	476 µM	11.8 ± 0.95 µM
